Measured values as given in patent US20100093642A1, “NOVEL POLYPEPTIDES” (priority 2006, published 2010).
No end group written: not given here.

Tests used:
[1] = tested on: Pseudomonas aeruginosa; assay type: cell-based
Protocol: (§1) The antibacterial activities of the different peptides were determined by continuous monitoring of bacterial growth with a Bioscreen C microbiology reader (Labsystems Oy, Helsinki, Finland). The test was performed in 100-well flat-bottomed honeycomb plates, in which 50 μl of test fractions were incubated with 50 μl of a suspension of an actively growing culture of bacteria diluted in Mueller Hinton medium to a starting concentration of 3×10^4 cells per ml. […] [NT] 13032) and S. aureus (ATCC 9144), were chosen as test bacteria. […] Polymyxin B (Sigma, St.

[2] = tested on: Botrytis cinerea 101; conditions: 48 h
Protocol: (§2) The various derivates of P17 (brominated and non-brominated) were tested for their ability to inhibit fungal growth of the yeast strains Saccaharomyces cerevisiae sp, Candida albicans (ATCC 10231) and Rodotorula sp., and the filamentous strains Botrytis cinerea 101, Penicillium rogveforti, and Fusarium sp. All strains, except C. albicans, were a gift from Prof. A. Tronsmo (The Norwegian University of Life Sciences, Ås, Norway). The fungi were cultivated on potato dextrose agar, supplemented with 2% glucose, at room temperature. Before antifungal testing, the fungi were dissolved in potato dextrose broth (Difco) at half-strength. Cell concentration was determined and adjusted after counting in a Bürker chamber. The filamentous fungi were filtered through a piece of cotton before counting. An aliquot of 50 μl of fungal spores (final concentration 2×10^5 spores per ml) were inoculated in microtiter plates (96 wells) along with 50 μl peptide solution. Peptides, dissolved in distilled water, were tested at final concentrations (two-fold dilutions) ranging from 50 μM to 0.1 μM. Cultures were grown in the dark (without shaking) and with a moist chamber at 25° C. (37° C. for C. albicans). Growth inhibition was determined microscopically after 48 h of incubation. MIC was determined as the lowest concentration of peptide resulting in 50% inhibition of visible growth.

[3] = tested on: Candida albicans (ATCC 10231); conditions: ATCC 10231, 48 h
Protocol: as §2

[4] = tested on: Saccharomyces cerevisiae; conditions: 48 h
Protocol: as §2

[5] = tested on: S. aureus (ATCC 9144); assay type: cell-based, Staphylococcus aureus; conditions: ATCC 9144
Protocol: as §1

[6] = tested on: human breast malignant carcinoma cell line MCF-7; assay type: cell-based; conditions: 24 h
Protocol: The cytotoxic effects of the peptides on different human tumour cells were measured using the MTT colorimetric assay (Mosmann, 1983). […] Dissolved MIT is converted to an insoluble purple formazan by cleavage of the tetrazolium ring by dehydrogenase enzymes. This water insoluble formazan can be solubilized using isopropanol or other solvents and the dissolved material is measured spectrophotometrically. The absorbance was measured as a function of concentration of converted dye. The conversion of the soluble dye to the insoluble purple formazan is utilized in assays for measurement of cell proliferation. […] We used this assay to measure the degree of cell death caused by the peptides. MCF-7 was maintained in EMEM, A2058 in DMEM and […]-29 in RPMI-1640 medium supplemented with 10% heat inactivated […] and 1% L-glutamine-L-alanine in a humidified atmosphere of 5% CO2 at 37° C. The human embryonic fibroblast cell line, MRC-5 (which is normal fibroblasts), was cultured as a monolayer in MEM medium, under the same conditions as described for the tumour cell lines. Cells to be used in the assay were grown to a minimum of 75% confluency, trypsinated and split to single cell suspension, counted and centrifuged at 1500 rpm for 10 min. The cell pellet was resuspended to a concentration of 2×10^5 cells/ml (HT-29) or 1×10^5 (MRC-5, MCF7 and A2058) in DMEM without FBS and L-glutamine-L-alanine (assay-medium). All cell lines were routinely tested for mycoplasma infection using a PCR-based mycoplasma detection kit (MycoSensor PCR Assay Kit, Stratagene), following the supplier's instructions. All cell lines were mycoplasma free. The cytotoxicity was measured using the MTT method (Mosmann, 1983), with minor modifications. Different human tumour cells (1-2×10^5) were applied in 96-well culture plates in a volume of 100 μl DMEM medium and incubated at 37° C. for 24 hours. The medium was removed and the cells were treated with 100 μl of peptide solution (concentrations ranging from 0 to 200 μg/ml), diluted in a) RPMI-1640 medium supplemented with 5% heat inactivated FBS, or b) RPMI-1640 medium without FBS. The plates were incubated at 37° C. for 24 hours. Cells treated with Triton X-100 (1%) was used as positive control (100% killing) whereas cells plus medium only were used as negative control. […] A volume of 70 μl of the supernatant was then removed and […] (0.04 M HCl in isopropanol) added to each well. The plate was placed on a shaker for 1 hour at room temperature and read spectrophotometrically at 590 nm in a microtiter plate reader (DTX880 Multimode Detector, Beckman Coulter).

[7] = tested on: E. coli (ATCC 25922); assay type: cell-based, Escherichia coli
Protocol: as §1

[8] = tested on: TNF-α; experiment: Inhibition of LPS induced TNF-α response in THP-1 cells (ELISA); assay type: cell-based, human; conditions: Ratio TC50 (THP-1)/EC50 (anti-TNFα)
Protocol: FIG. 12. Antiinnflammatory response measured as inhibition of tumor necrosis factor alpha (TNF-α) response in THP-1 cells after stimulation with LPS. THP-1 cells (1×10^6 cells/ml) were treated with P17 derivates in different concentrations for 1 hour, and subsequently stimulated with 100 ng/ml LPS for 6 hours. LPS was used as control for induction of TNF-α. (set as 100% response), RPMI media was used as negative (non-stimulated) control, and cycloheximide (Chx, 10 μg/ml) was used as a an inhibitory control for LPS induced TNF-α. The data presented are the average of two parallells. (A) The effect of the peptides P17 HC and P17 HC (1-20). (B) The effect of the peptides P17 HC (11-20) and P17 HC-Br.
The THP-1 cells (ATCC, TIB-202) were maintained in suspension in RPMI-1640 medium with 25 mM HEPES and 2 mM Glutamax I supplemented with 10% FBS (growth medium) in a humidified atmosphere of 5% CO2 at 37° C. Cells to be used in the assay were grown to a density of 8×10^5-1×10^6 cells/ml. The cells were centrifuged for 7 min at 200 g and the cell pellet was resuspended to a concentration of 10^6 cells/ml in RPMI-1640 with 10% FBS.
To allow examination of antiinflammatory effects of the peptides on basal and stimulated cytokine production, peptide-treated macrophages were cultured in the presence of LPS and the levels of TNF-α were measured. The primary screening was based on a mammalian cell line; the human THP-1 line. This line is of monocyte/macrophage origin and responds to various stimuli by increased production of cytokines, like TNF-α and the IL-1β, (Wang et al. 2000). To induce monocyte-macrophage differentiation, THP-1 cells were cultured in 96-well culture plates (10^6 cells/well) in a volume of 100 μl RPMI 1640 medium, containing 50 ng/ml PMA (which is known to induce the maturation of monocytes) and incubated in a humidified atmosphere of 5% CO2, at 37° C. for 48 hours. The medium was then removed and the cells were washed with PBS, added 100 μl fresh medium (without PMA) and incubated for another 24 hours. Medium was removed and the adherent macrophages were treated with 100 μl of peptide solution (concentrations ranging from 0 to 400 μg/ml), diluted in RPMI-1640 medium with 25 mM HEPES and 2 mM Glutamax I, but without […] (assay medium). After incubation at 37° C. for 1 hour, the cells were added LPS (0.1 μg/ml) and further incubated for 6 hours. […] TNF-α concentrations were quantified by the Human TNF-α ELISA MAX kit (BioLegend), according to the manufacturer's instructions. Duplicate readings for each standard, control and sample were recorded. The average absorbance for each set of standards, controls, and samples was calculated using a standard curve. Concentrations were determined by extrapolation on the standard curve.

[9] = tested on: C. glutamicum (ATCC 13032); assay type: cell-based, Corynebacterium glutamicum
Protocol: as §1

Which results are given for SHAVKSGIHA [P17 HC (11-20)]?
Minimal inhibitory concentration, P. aeruginosa [1]: >100 µM; Minimal inhibitory concentration (MIC), Botrytis cinerea [2]: >100 µM; Minimal inhibitory concentration (MIC), Candida albicans [3]: >100 µM; Minimal inhibitory concentration (MIC), Saccharomyces cerevisiae [4]: >100 µM; Minimal inhibitory concentration, S. aureus [5]: >100 µM; IC50 [6]: 103 µM; Minimal inhibitory concentration, E. coli [7]: >100 µM; Therapeutic index TC50/EC50 [8]: >2.2; Minimal inhibitory concentration, C. glutamicum [9]: >100 µM
